From ChEMBL document CHEMBL1147210, “Synthesis and antibacterial activity of levofloxacin derivatives with certain bulky residues on piperazine ring” (Eur J Med Chem, 2007)
In brackets after ≈: the same amount, converted by molar mass.

Key:
[1] = tested on: Staphylococcus aureus; experiment: Antibacterial activity against Staphylococcus aureus ATCC 25923 after 18 hrs; assay type: functional; conditions: ATCC 25923, 18 h
[2] = tested on: Staphylococcus aureus; experiment: Antibacterial activity against Staphylococcus aureus ATCC 6538p after 18 hrs; assay type: functional
[3] = tested on: Staphylococcus aureus; experiment: Antibacterial activity against methicillin-resistant Staphylococcus aureus isolate 1 after 18 hrs; assay type: functional
[4] = tested on: Staphylococcus aureus; experiment: Antibacterial activity against methicillin-resistant Staphylococcus aureus isolate 2 after 18 hrs; assay type: functional
[5] = tested on: Staphylococcus epidermidis; experiment: Antibacterial activity against Staphylococcus epidermidis ATCC 14940 after 18 hrs; assay type: functional; conditions: ATCC 14940, 18 h
[6] = tested on: Staphylococcus epidermidis; experiment: Antibacterial activity against Staphylococcus epidermidis ATCC 12228 after 18 hrs; assay type: functional; conditions: ATCC 12228, 18 h
[7] = tested on: Bacillus subtilis; experiment: Antibacterial activity against Bacillus subtilis ATCC 6051 after 18 hrs; assay type: functional; conditions: ATCC 6051, 18 h
[8] = tested on: Enterococcus faecalis; experiment: Antibacterial activity against Enterococcus faecalis NCTC 6013 after 18 hrs; assay type: functional; conditions: NCTC 6013, 18 h
[9] = tested on: Serratia marcescens; experiment: Antibacterial activity against Serratia marcescens PTCC 1111 after 18 hrs; assay type: functional
[10] = tested on: Escherichia coli; experiment: Antibacterial activity against Escherichia coli ATCC 25922 after 18 hrs; assay type: functional; conditions: ATCC 25922, 18 h
[11] = tested on: Escherichia coli; experiment: Antibacterial activity against Escherichia coli NCTC 12900 after 18 hrs; assay type: functional; conditions: NCTC 12900, 18 h
[12] = tested on: Klebsiella pneumoniae; experiment: Antibacterial activity against Klebsiella pneumoniae ATCC 10031 after 18 hrs; assay type: functional; conditions: ATCC 10031, 18 h
[13] = tested on: Salmonella typhi; experiment: Antibacterial activity against Salmonella typhi ATCC 19430 after 18 hrs; assay type: functional, Salmonella enterica subsp. enterica serovar Typhi; conditions: Salmonella enterica, ATCC 19430, 18 h
[14] = tested on: Shigella flexneri; experiment: Antibacterial activity against Shigella flexneri NCTC 8516 after 18 hrs; assay type: functional; conditions: NCTC 8516, 18 h
[15] = tested on: Pseudomonas aeruginosa; experiment: Antibacterial activity against Pseudomonas aeruginosa ATCC 27853 after 18 hrs; assay type: functional; conditions: ATCC 27853, 18 h
[16] = tested on: MCF7; experiment: Cytotoxic activity against human MCF7 cells after 48 hrs by MTT reduction assay; assay type: functional, cell-based; conditions: MCF7, 48 h

Structure (SMILES) | MIC [1] [µg/mL] | MIC [2] [µg/mL] | MIC [3] [µg/mL] | MIC [4] [µg/mL] | MIC [5] [µg/mL] | MIC [6] [µg/mL] | MIC [7] [µg/mL] | MIC [8] [µg/mL] | MIC [9] [µg/mL] | MIC [10] [µg/mL] | MIC [11] [µg/mL] | MIC [12] [µg/mL] | MIC [13] [µg/mL] | MIC [14] [µg/mL] | MIC [15] [µg/mL] | IC50 [16] [µM]
C[C@H]1COc2c(N3CCN(C/C(=N\O)c4ccc(Cl)cc4)CC3)c(F)cc3c(=O)c(C(=O)O)cn1c23 | 0.5 (≈ 0.971 µM) | 0.25 (≈ 0.485 µM) | 0.5 (≈ 0.971 µM) | 0.25 (≈ 0.485 µM) | 0.12 (≈ 0.233 µM) | 0.25 (≈ 0.485 µM) | 0.25 (≈ 0.485 µM) | 0.06 (≈ 0.117 µM) | > 4 | 2 (≈ 3.88 µM) | 1 (≈ 1.94 µM) | > 4 | 0.5 (≈ 0.971 µM) | 0.5 (≈ 0.971 µM) | > 4 | 5.2
C[C@H]1COc2c(N3CCN(C/C(=N\O)c4ccc(F)cc4)CC3)c(F)cc3c(=O)c(C(=O)O)cn1c23 | 1 (≈ 2.01 µM) | 1 (≈ 2.01 µM) | 1 (≈ 2.01 µM) | 1 (≈ 2.01 µM) | 0.5 (≈ 1 µM) | 0.5 (≈ 1 µM) | 0.25 (≈ 0.502 µM) | 0.25 (≈ 0.502 µM) | > 4 | 4 (≈ 8.02 µM) | 2 (≈ 4.01 µM) | > 4 | 1 (≈ 2.01 µM) | 1 (≈ 2.01 µM) | > 4 | 
C[C@H]1COc2c(N3CCN(CC(=O)c4ccccc4)CC3)c(F)cc3c(=O)c(C(=O)O)cn1c23 | 0.5 (≈ 1.07 µM) | 0.5 (≈ 1.07 µM) | 0.5 (≈ 1.07 µM) | 1 (≈ 2.15 µM) | 0.5 (≈ 1.07 µM) | 0.5 (≈ 1.07 µM) | 0.5 (≈ 1.07 µM) | 4 (≈ 8.59 µM) | 4 (≈ 8.59 µM) | 0.12 (≈ 0.258 µM) | 0.25 (≈ 0.537 µM) | 0.5 (≈ 1.07 µM) | 0.12 (≈ 0.258 µM) | 0.25 (≈ 0.537 µM) | > 4 | 
COc1cc([C@@H]2c3cc4c(cc3[C@@H](O[C@@H]3O[C@@H]5CO[C@@H](C)O[C@H]5[C@H](O)[C@H]3O)[C@H]3COC(=O)[C@H]23)OCO4)cc(OC)c1O [ETOPOSIDE] |  |  |  |  |  |  |  |  |  |  |  |  |  |  |  | 3.2
COc1ccc(C(=O)CN2CCN(c3c(F)cc4c(=O)c(C(=O)O)cn5c4c3OC[C@@H]5C)CC2)cc1 | 0.5 (≈ 1.01 µM) | 0.5 (≈ 1.01 µM) | 0.5 (≈ 1.01 µM) | 1 (≈ 2.02 µM) | 0.25 (≈ 0.505 µM) | 0.25 (≈ 0.505 µM) | 0.25 (≈ 0.505 µM) | 0.06 (≈ 0.121 µM) | 4 (≈ 8.07 µM) | 0.5 (≈ 1.01 µM) | 0.5 (≈ 1.01 µM) | 4 (≈ 8.07 µM) | 0.5 (≈ 1.01 µM) | 0.5 (≈ 1.01 µM) | > 4 | 
C[C@H]1COc2c(N3CCNCC3)c(F)cc3c(=O)c(C(=O)O)cn1c23 [N-DESMETHYL LEVOFLOXACIN] | 4 (≈ 11.5 µM) | 2 (≈ 5.76 µM) | 2 (≈ 5.76 µM) | 2 (≈ 5.76 µM) | 1 (≈ 2.88 µM) | 1 (≈ 2.88 µM) | 1 (≈ 2.88 µM) | 0.06 (≈ 0.173 µM) | 1 (≈ 2.88 µM) | 0.12 (≈ 0.345 µM) | 0.12 (≈ 0.345 µM) | 0.25 (≈ 0.72 µM) | 0.06 (≈ 0.173 µM) | 0.06 (≈ 0.173 µM) | > 4 | 
Cc1ccc(C(=O)CN2CCN(c3c(F)cc4c(=O)c(C(=O)O)cn5c4c3OC[C@@H]5C)CC2)cc1 | 0.5 (≈ 1.04 µM) | 1 (≈ 2.09 µM) | 1 (≈ 2.09 µM) | 1 (≈ 2.09 µM) | 0.5 (≈ 1.04 µM) | 0.5 (≈ 1.04 µM) | 0.5 (≈ 1.04 µM) | 0.25 (≈ 0.521 µM) | > 4 | 1 (≈ 2.09 µM) | 0.5 (≈ 1.04 µM) | > 4 | 1 (≈ 2.09 µM) | 0.5 (≈ 1.04 µM) | > 4 | 
C[C@H]1COc2c(N3CCN(C/C(=N\O)c4ccc(Cl)cc4Cl)CC3)c(F)cc3c(=O)c(C(=O)O)cn1c23 | 0.5 (≈ 0.91 µM) | 0.5 (≈ 0.91 µM) | 0.5 (≈ 0.91 µM) | 0.5 (≈ 0.91 µM) | 0.5 (≈ 0.91 µM) | 0.5 (≈ 0.91 µM) | 1 (≈ 1.82 µM) | 4 (≈ 7.28 µM) | > 4 | 4 (≈ 7.28 µM) | 4 (≈ 7.28 µM) | > 4 | 4 (≈ 7.28 µM) | 4 (≈ 7.28 µM) | > 4 | 
C[C@H]1COc2c(N3CCN(C)CC3)c(F)cc3c(=O)c(C(=O)O)cn1c23.C[C@H]1COc2c(N3CCN(C)CC3)c(F)cc3c(=O)c(C(=O)O)cn1c23.O [LEVOFLOXACIN] | 0.5 | 0.25 | 0.25 | 0.25 | 0.5 | 0.25 | 0.5 | 1 | 0.5 |  |  | 0.25 | 0.03 | 0.03 |  | 
C[C@H]1COc2c(N3CCN(CC(=O)c4ccc(Cl)cc4Cl)CC3)c(F)cc3c(=O)c(C(=O)O)cn1c23 | 0.5 (≈ 0.936 µM) | 1 (≈ 1.87 µM) | 0.5 (≈ 0.936 µM) | 1 (≈ 1.87 µM) | 0.5 (≈ 0.936 µM) | 1 (≈ 1.87 µM) | 1 (≈ 1.87 µM) | 0.5 (≈ 0.936 µM) | > 4 | 1 (≈ 1.87 µM) | 2 (≈ 3.74 µM) | > 4 | 2 (≈ 3.74 µM) | 1 (≈ 1.87 µM) | > 4 | 
COc1ccc(/C(CN2CCN(c3c(F)cc4c(=O)c(C(=O)O)cn5c4c3OC[C@@H]5C)CC2)=N/O)cc1 | 1 (≈ 1.96 µM) | 0.5 (≈ 0.979 µM) | 1 (≈ 1.96 µM) | 0.5 (≈ 0.979 µM) | 0.5 (≈ 0.979 µM) | 0.5 (≈ 0.979 µM) | 0.12 (≈ 0.235 µM) | 0.06 (≈ 0.118 µM) | > 4 | 0.5 (≈ 0.979 µM) | 0.5 (≈ 0.979 µM) | > 4 | 0.5 (≈ 0.979 µM) | 0.5 (≈ 0.979 µM) | > 4 | 
Cc1ccc(/C(CN2CCN(c3c(F)cc4c(=O)c(C(=O)O)cn5c4c3OC[C@@H]5C)CC2)=N/O)cc1 | 1 (≈ 2.02 µM) | 0.5 (≈ 1.01 µM) | 0.5 (≈ 1.01 µM) | 0.5 (≈ 1.01 µM) | 0.5 (≈ 1.01 µM) | 0.5 (≈ 1.01 µM) | 0.5 (≈ 1.01 µM) | 0.25 (≈ 0.506 µM) | > 4 | 1 (≈ 2.02 µM) | 1 (≈ 2.02 µM) | > 4 | 1 (≈ 2.02 µM) | 1 (≈ 2.02 µM) | > 4 | 
C[C@H]1COc2c(N3CCN(CC(=O)c4ccc(F)cc4)CC3)c(F)cc3c(=O)c(C(=O)O)cn1c23 | 1 (≈ 2.07 µM) | 1 (≈ 2.07 µM) | 0.5 (≈ 1.03 µM) | 1 (≈ 2.07 µM) | 0.5 (≈ 1.03 µM) | 0.5 (≈ 1.03 µM) | 0.5 (≈ 1.03 µM) | 0.25 (≈ 0.517 µM) | > 4 | 1 (≈ 2.07 µM) | 2 (≈ 4.14 µM) | > 4 | 1 (≈ 2.07 µM) | 1 (≈ 2.07 µM) | > 4 | 
C[C@H]1COc2c(N3CCN(C/C(=N\O)c4ccccc4)CC3)c(F)cc3c(=O)c(C(=O)O)cn1c23 | 0.5 (≈ 1.04 µM) | 0.5 (≈ 1.04 µM) | 0.5 (≈ 1.04 µM) | 1 (≈ 2.08 µM) | 0.5 (≈ 1.04 µM) | 0.5 (≈ 1.04 µM) | 0.25 (≈ 0.52 µM) | 4 (≈ 8.32 µM) | > 4 | 4 (≈ 8.32 µM) | 4 (≈ 8.32 µM) | 4 (≈ 8.32 µM) | 0.5 (≈ 1.04 µM) | 0.5 (≈ 1.04 µM) | > 4 | 
